Results from US20100068208A1, “Degranulation inhibitor” (priority 2005, published 2010).
Read-outs that look alike come from different tables or passages of the source. Where no end group is shown, it is not given here.

Columns and labels:
[1] = test system: human mast cell line LAD 2; test: TGR12 ligand-dependent degranulation of LAD 2 (β-hexosaminidase release); format: cell-based
Method: Human mast cell line LAD 2 was incubated in StemPro-34 medium (Invitrogen) supplemented with 100 ng/mL of stem cell factor (Immuno-Biological Laboratories Co., Ltd.). […] Subsequently, Tyrode's buffer containing 50 μL of TGR12 ligand (Peptide Institute, Inc.) in various concentrations was added and incubation was continued at 37° C. for further 20 minutes to induce degranulation. The degree of degranulation was determined by assaying the β-hexosaminidase activity in the degranulation assay supernatant as given below. The supernatant was dispensed into a 96-well plate and 0.1M citrate (pH 4.5)/1 mM 4-methyl umbelliferyl-2-acetamido-2-deoxy-beta-D-glucopyranoside (Wako Pure Chemical) in 5-fold of the supernatant was added thereto, followed by incubation at 37° C. for an hour. […] The activity was then assayed using Fusion-α (Perkin-Elmer). The β-hexosaminidase activity was also shown by the activity in the supernatant obtained by centrifugation after freezing and thawing LAD 2 four times, which was made total β-hexosaminidase activity in LAD 2, and the degree of degranulation was shown as the percentage of the β-hexosaminidase activity in the LAD 2 supernatant based on the total β-hexosaminidase activity.

TGR12 = format: cell-based, human
Method: CHO/dhfr^− cells (hereinafter CHO) were incubated in α-MEM (Invitrogen) supplemented with 10% fetal calf serum. After a termination codon in the TGR12-encoding nucleotide sequence was removed, a nucleotide sequence ligated with the nucleotide sequence encoding GFP (Wako Pure Chemical) [hereinafter briefly referred to as TGR12-GFP (DNA having the nucleotide sequence represented by SEQ ID NO: 31)] was incorporated into vector plasmid pAKKO-111H (the same vector plasmid as pAKKO1.11H described in Biochim. Biophys. Acta, 1219, 251-259 (1994)) for animal cell expression, and the vector plasmid was stably expressed to establish TGR12-GFP-expressed CHO cell line (hereinafter CHO-TGR12). CHO-TGR12 was incubated in nucleic acid-free α-MEM medium (Invitrogen) containing 10% dialyzed fetal calf serum.
CHO-TGR12 was plated in a 96-well plate at a density of 30,000 cells/well. After incubation overnight, the medium was discarded and 100 μL/well of assay buffer [Hank's Balanced Salt Solution (Invitrogen), 20 mM HEPES (Dojin Chemical Laboratory) and 2.5 mM Probenecid (Sigma)] containing 4 μM Fluo3-AM (Dojin Chemical Laboratory) was added, which was then allowed to stand for an hour at 37° C. […] After the cells were washed with assay buffer, fluorescence reflecting changes in intracellular calcium levels was assayed on FLIPR (Molecular Device). Ten seconds after initiation of the assay, 50 μL of a sample was added at a rate of 50 μL/second. Fluorescence measurement was taken every 1 second during the first 60 seconds and then every 6 seconds during the next 120 seconds; the highest fluorescence intensity over a 3 minute period was taken as the maximum activity under the stimulation condition, representing the mean value of 3 wells. The EC50 values were determined using Graphpad PRISM 4 (Graphpad Software).

human TGR12 = biological target: T1, human TGR12 (Homo sapiens, UniProt Q96LB1); test: Intracellular calcium increasing activity in RBL2H3-TGR12 (FLIPR); format: cell-based; settings: RBL2H3-TGR12, 1 μM
T1 construct: expressed in transfected cells
T1 sequence (Q96LB1 1-330): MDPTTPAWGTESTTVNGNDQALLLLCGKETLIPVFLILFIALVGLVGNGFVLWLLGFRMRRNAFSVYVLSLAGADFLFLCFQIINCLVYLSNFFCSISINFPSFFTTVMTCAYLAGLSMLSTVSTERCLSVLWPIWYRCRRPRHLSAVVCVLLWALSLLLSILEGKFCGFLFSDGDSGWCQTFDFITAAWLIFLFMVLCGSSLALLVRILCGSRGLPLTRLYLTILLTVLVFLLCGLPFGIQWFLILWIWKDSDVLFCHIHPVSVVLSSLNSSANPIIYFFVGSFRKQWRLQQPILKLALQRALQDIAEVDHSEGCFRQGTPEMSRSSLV
Method: (§1) RBL-2H3 (hereinafter RBL2H3) was incubated in α-MEM (Invitrogen) supplemented with 10% fetal calf serum. Vector plasmid pcDNA3.1 for animal cell expression, in which the nucleotide sequence containing the initiation codon to the termination codon of human TGR12 (DNA having the nucleotide sequence represented by SEQ ID NO: 32) was incorporated, was stably expressed in RBL-2H3 to establish human TGR12-expressed RBL-2H3 cell line (hereinafter RBL2H3-TGR12). RBL2H3-TGR12 was incubated in α-MEM (Invitrogen) supplemented with 10% fetal calf serum and 200 μg/mL of Geneticin.
(§2) The intracellular calcium increasing activity was assayed as follows. RBL2H3 and RBL2H3-TGR12 were plated in a 96-well plate at a density of 40,000 cells/well and incubated overnight. The medium was then discarded and 100 μL/well of 4 μM Fluo3-AM (Dojin Kagaku)-containing assay buffer [Hank's Balanced Salt Solution (Invitrogen), 20 mM HEPES (Dojin Kagaku) and 2.5 mM Probenecid (Sigma)] was added. The mixture was allowed to stand for an hour at 37° C. Various TGR12 (Peptide Institute, Inc.) or calcium ionophore A23187 (Wako Pure Chemical) was diluted in 0.05% CHAPS-containing assay buffer. After the cells were washed with the assay buffer, fluorescence emitted with changes in intracellular calcium was measured using FLIPR (Molecular Device). A sample, 50 μL, was added at a rate of 50 μL/sec. 10 seconds after initiation of the assay. Fluorescence was measured every 1 second during the first 60 seconds and every 6 seconds during the next 120 seconds. The highest fluorescence intensity during 3 minutes was made the maximum activity under the stimulation conditions, which was taken as an average of 3 wells. The EC50 values were calculated using Graphpad PRISM 4 (Graphpad Software).

RBL-2H3 = test: Intracellular calcium increasing activity in RBL2H3 (FLIPR); format: cell-based; settings: RBL2H3, 1 μM
Method: as §1, §2

[2] = test system: human mast cell line LAD 2; test: Effect of NK1 receptor antagonists on substance P- or A23187-induced degranulation of LAD 2; format: cell-based
Method: Subsequently, Tyrode's buffer containing 50 μL of NK1 antagonist GR-82334 (Sigma, Inc.) in various concentrations or L-703606 (Sigma, Inc.) was added and incubation was continued at 37° C. for 5 minutes. […] Next, 0.2 M glycine/NaCO3 (pH 10.7) was added in a volume of 0.1-fold of the reaction solution to stop the reaction. The activity was then assayed using Fusion-α (Perkin-Elmer). […] The inhibition activity by the NK1 receptor antagonist was expressed as the percentage of the β-hexosaminidase activity when the NK1 antagonist was added in various concentrations, based on the β-hexosaminidase activity when no NK1 antagonist was added.

[3] = biological target: T2, TGR12-GFP (fused protein of human TGR12 and GFP, encoded by the DNA of SEQ ID NO: 31), stably expressed on … (human, UniProt Q96LB1 1-330); test: cell-based or functional assay
T2 sequence: T1 sequence (Q96LB1 1-330)

human TGR12 (untagged) = biological target: T3, human TGR12 (untagged) (human, UniProt Q96LB1 1-330); test: cell-based or functional assay
T3 sequence: T1 sequence (Q96LB1 1-330)

CC[C@H](C)[C@H](NC(=O)CNC(=O)[C@H](CC(=O)O)NC(=O)[C@H](CO)NC(=O)[C@@H](N)Cc1c[nH]cn1)C(=O)N[C@@H](Cc1ccccc1)C(=O)N[C@H](C(=O)N[C@@H](CC(=O)O)C(=O)N[C@@H](CO)C(=O)N[C@@H](Cc1ccc(O)cc1)C(=O)N[C@@H](CO)C(=O)N[C@@H](CCCNC(=N)N)C(=O)N[C@@H](Cc1ccc(O)cc1)C(=O)N[C@@H](CCCNC(=N)N)C(=O)N[C@@H](CCCCN)C(=O)N[C@@H](CCC(N)=O)C(=O)N[C@@H](CCSC)C(=O)N[C@@H](C)C(=O)N[C@H](C(=O)N[C@@H](CCCCN)C(=O)N[C@@H](CCCCN)C(=O)N[C@@H](Cc1ccc(O)cc1)C(=O)N[C@@H](CC(C)C)C(=O)N[C@@H](C)C(=O)N[C@@H](C)C(=O)N[C@H](C(=O)N[C@@H](CC(C)C)C(=O)NCC(=O)N[C@@H](CCCCN)C(=O)N[C@@H](CCCNC(=N)N)C(=O)N[C@@H](Cc1ccc(O)cc1)C(=O)N[C@@H](CCCCN)C(=O)N[C@@H](CCC(N)=O)C(=O)N[C@@H](CCCNC(=N)N)C(=O)N[C@H](C(=O)N[C@@H](CCCCN)C(=O)N[C@@H](CC(N)=O)C(=O)N[C@@H](CCCCN)C(N)=O)C(C)C)C(C)C)C(C)C)[C@@H](C)O [PACAP-38]
stimulated degranulation (β-hexosaminidase in supernatant, % of total) ([1]; LAD 2, 10 nM): 7.4%
stimulated degranulation (β-hexosaminidase in supernatant, % of total) ([1]; LAD 2, 30 nM): 24.8%
stimulated degranulation (β-hexosaminidase in supernatant, % of total) ([1]; LAD 2, 100 nM): 49.4%
stimulated degranulation (β-hexosaminidase in supernatant, % of total) ([1]; LAD 2, 300 nM): 65.8%
stimulated degranulation (β-hexosaminidase in supernatant, % of total) ([1]; LAD 2, 1 μM): 68.9%
stimulated degranulation (β-hexosaminidase in supernatant, % of total) ([1]; LAD 2, 3 μM): 63.3%
EC50 ([1]; LAD 2, read-out: EC50 in the degranulation on LAD 2): ~51 nM
maximum activity in the calcium increasing effect (TGR12; CHO-TGR12, 0.3 nM, highest fluorescence intensity over 3 minutes): 287
maximum activity in the calcium increasing effect (TGR12; CHO-TGR12, 3 nM): 410
maximum activity in the calcium increasing effect (TGR12; CHO-TGR12, 30 nM): 195
maximum activity in the calcium increasing effect (TGR12; CHO-TGR12, 300 nM): 23043
maximum activity in the calcium increasing effect (TGR12; CHO-TGR12, 3000 nM): 23315
EC50 (TGR12; CHO-TGR12, read-out: EC50 in the calcium increasing effect on CHO-TGR12): ~161 nM

CNc1ccc2oc(C[C@H]3O[C@@]4(CC[C@H]3C)O[C@H]([C@H](C)C(=O)c3ccc[nH]3)[C@H](C)C[C@H]4C)nc2c1C(=O)O [A23187]
maximum activity in the calcium increasing effect (human TGR12): 25624
maximum activity in the calcium increasing effect (TGR12; CHO-TGR12, 1 μM): 27379
maximum activity in the calcium increasing effect (RBL-2H3): 25338

Ic1ccccc1CN[C@@H]1C2CCN(CC2)[C@@H]1C(c1ccccc1)c1ccccc1 [L-703606]
degranulation, % of β-hexosaminidase activity without NK1 antagonist ([2]; A23187 stimulation 0.3 μM, antagonist 100 nM): 98.4%
degranulation, % of β-hexosaminidase activity without NK1 antagonist ([2]; A23187 stimulation 0.3 μM, antagonist 300 nM): 97.2%
degranulation, % of β-hexosaminidase activity without NK1 antagonist ([2]; A23187 stimulation 0.3 μM, antagonist 1 μM): 97.4%
degranulation, % of β-hexosaminidase activity without NK1 antagonist ([2]; A23187 stimulation 0.3 μM, antagonist 3 μM): 91.5%
degranulation, % of β-hexosaminidase activity without NK1 antagonist ([2]; A23187 stimulation 0.3 μM, antagonist 10 μM): 37.1%
degranulation, % of β-hexosaminidase activity without NK1 antagonist ([2]; A23187 stimulation 0.3 μM, antagonist 30 μM): 2.4%
inhibition of the degranulation by the substance P and A23187 stimulation ([2]; concentration range of 3 μM): did not inhibit
inhibition of the degranulation by the substance P and A23187 stimulation ([2]; concentration range of 10 μM to 30 μM, non-specifically to TGR12 and NK1 receptor): inhibited
degranulation, % of β-hexosaminidase activity without NK1 antagonist ([2]; substance P stimulation 0.3 μM, antagonist 100 nM): 101.1%
degranulation, % of β-hexosaminidase activity without NK1 antagonist ([2]; substance P stimulation 0.3 μM, antagonist 300 nM): 97.9%
degranulation, % of β-hexosaminidase activity without NK1 antagonist ([2]; substance P stimulation 0.3 μM, antagonist 1 μM): 98.8%
degranulation, % of β-hexosaminidase activity without NK1 antagonist ([2]; substance P stimulation 0.3 μM, antagonist 3 μM): 100.0%
degranulation, % of β-hexosaminidase activity without NK1 antagonist ([2]; substance P stimulation 0.3 μM, antagonist 10 μM): 39.4%
degranulation, % of β-hexosaminidase activity without NK1 antagonist ([2]; substance P stimulation 0.3 μM, antagonist 30 μM): 3.2%

DRMPCRNFFWKTFSSCK (peptide, UniProt O00230 89-105, looked up, not fully specified; ends and bridges not checked) [human cortistatin-17]
maximum activity in the calcium increasing effect (FLIPR), CHO-TGR12, at 0.3 nM [3]: 67 fluorescence intensity
maximum activity in the calcium increasing effect (FLIPR), CHO-TGR12, at 3 nM [3]: 54 fluorescence intensity
maximum activity in the calcium increasing effect (FLIPR), CHO-TGR12, at 30 nM [3]: 94 fluorescence intensity
maximum activity in the calcium increasing effect (FLIPR), CHO-TGR12, at 300 nM [3]: 17900 fluorescence intensity
maximum activity in the calcium increasing effect (FLIPR), CHO-TGR12, at 3000 nM [3]: 23600 fluorescence intensity
degranulation of LAD 2 (beta-hexosaminidase release, % of total) at 10 nM (human TGR12 (untagged)): 1.6%
degranulation of LAD 2 (beta-hexosaminidase release, % of total) at 30 nM (human TGR12 (untagged)): 2.8%
degranulation of LAD 2 (beta-hexosaminidase release, % of total) at 100 nM (human TGR12 (untagged)): 26.5%
degranulation of LAD 2 (beta-hexosaminidase release, % of total) at 300 nM (human TGR12 (untagged)): 52.8%
degranulation of LAD 2 (beta-hexosaminidase release, % of total) at 1 µM (human TGR12 (untagged)): 62.2%
degranulation of LAD 2 (beta-hexosaminidase release, % of total) at 3 µM (human TGR12 (untagged)): 58.9%
maximum activity in the calcium increasing effect (FLIPR), RBL2H3-TGR12, at 1 nM (human TGR12 (untagged)): -2 fluorescence intensity
maximum activity in the calcium increasing effect (FLIPR), RBL2H3-TGR12, at 10 nM (human TGR12 (untagged)): 33 fluorescence intensity
maximum activity in the calcium increasing effect (FLIPR), RBL2H3-TGR12, at 100 nM (human TGR12 (untagged)): 1570 fluorescence intensity
maximum activity in the calcium increasing effect (FLIPR), RBL2H3-TGR12, at 1 µM (human TGR12 (untagged)): 11200 fluorescence intensity
maximum activity in the calcium increasing effect (FLIPR), RBL2H3-TGR12, at 10 µM (human TGR12 (untagged)): 12800 fluorescence intensity
